Experimental data published in ChEMBL document CHEMBL6074711, “Design, Synthesis, and Activity Evaluation of C-23-Modified 5-O-Mycaminosyltylonolide Derivatives” (ACS Med Chem Lett, 2024).
Values after ≈ are worked out from the molar mass of the structure shown.

Tests used:
[1] = tested on: Escherichia coli; assay: Antibacterial activity against Escherichia coli ATCC25922 incubated for 16 to 20 hrs by broth microdilution method; type: functional; details: time 16-20 hrs
[2] = tested on: Staphylococcus aureus; assay: Antibacterial activity against Staphylococcus aureus ATCC25923 incubated for 16 to 20 hrs by broth microdilution method; type: functional; details: time 16-20 hrs

| Structure (SMILES) | MIC [1] [µg/mL] | MIC [2] [µg/mL] |
| --- | --- | --- |
| CCCN(C)C[C@H]1/C=C(C)/C=C/C(=O)[C@H](C)C[C@H](CCNCc2cn(-c3cnc4ccccc4c3)nn2)[C@H](O[C@@H]2O[C@H](C)[C@@H](O)[C@H](N(C)C)[C@H]2O)[C@@H](C)[C@H](O)CC(=O)O[C@@H]1CC | 4 (≈ 4.64 µM) | 0.5 (≈ 0.58 µM) |
| CC[C@H]1OC(=O)C[C@@H](O)[C@H](C)[C@@H](O[C@@H]2O[C@H](C)[C@@H](O)[C@H](N(C)C)[C@H]2O)[C@@H](CCNCc2cn(-c3cnc4ccccc4c3)nn2)C[C@@H](C)C(=O)/C=C/C(C)=C/[C@@H]1CO | 4 (≈ 4.96 µM) | 0.25 (≈ 0.31 µM) |
| CC[C@H]1OC(=O)C[C@@H](O)[C@H](C)[C@@H](O[C@@H]2O[C@H](C)[C@@H](O)[C@H](N(C)C)[C@H]2O)[C@@H](CCN(Cc2cn(-c3cnc4ccccc4c3)nn2)c2ccccc2)C[C@@H](C)C(=O)/C=C/C(C)=C/[C@@H]1CN(C)C1CCCCC1 | 4 (≈ 4.09 µM) | 0.5 (≈ 0.511 µM) |
| CC[C@H]1OC(=O)C[C@@H](O)[C@H](C)[C@@H](O[C@@H]2O[C@H](C)[C@@H](O)[C@H](N(C)C)[C@H]2O)[C@@H](CCN(Cc2cn(-c3cnc4ccccc4c3)nn2)c2ccccc2)C[C@@H](C)C(=O)/C=C/C(C)=C/[C@@H]1CN(C)C(C)C | 8 (≈ 8.53 µM) | 0.5 (≈ 0.533 µM) |
| CCCCN(CCCC)C[C@H]1/C=C(C)/C=C/C(=O)[C@H](C)C[C@H](CCN(Cc2cn(-c3cnc4ccccc4c3)nn2)c2ccccc2)[C@H](O[C@@H]2O[C@H](C)[C@@H](O)[C@H](N(C)C)[C@H]2O)[C@@H](C)[C@H](O)CC(=O)O[C@@H]1CC | 32 (≈ 32.2 µM) | 1 (≈ 1.01 µM) |
| CC[C@H]1OC(=O)C[C@@H](O)[C@H](C)[C@@H](O[C@@H]2O[C@H](C)[C@@H](O)[C@H](N(C)C)[C@H]2O)[C@@H](CCN(Cc2cn(-c3cnc4ccccc4c3)nn2)c2ccccc2)C[C@@H](C)C(=O)/C=C/C(C)=C/[C@@H]1CI | 32 (≈ 32.2 µM) | 2 (≈ 2.01 µM) |
| CCCNC[C@H]1/C=C(C)/C=C/C(=O)[C@H](C)C[C@H](CCN(Cc2cn(-c3cnc4ccccc4c3)nn2)c2ccccc2)[C@H](O[C@@H]2O[C@H](C)[C@@H](O)[C@H](N(C)C)[C@H]2O)[C@@H](C)[C@H](O)CC(=O)O[C@@H]1CC | 8 (≈ 8.66 µM) | 2 (≈ 2.16 µM) |
| CC[C@H]1OC(=O)C[C@@H](O)[C@H](C)[C@@H](O[C@@H]2O[C@H](C)[C@@H](O)[C@H](N(C)C)[C@H]2O)[C@@H](CCNCc2cn(-c3cnc4ccccc4c3)nn2)C[C@@H](C)C(=O)/C=C/C(C)=C/[C@@H]1CI | 8 (≈ 8.73 µM) | 2 (≈ 2.18 µM) |
| CC[C@H]1OC(=O)C[C@@H](O)[C@H](C)[C@@H](O[C@@H]2O[C@H](C)[C@@H](O)[C@H](N(C)C)[C@H]2O)[C@@H](CCNCc2cn(-c3cnc4ccccc4c3)nn2)C[C@@H](C)C(=O)/C=C/C(C)=C/[C@@H]1CN(C)C1CCCCC1 | 2 (≈ 2.22 µM) | 1 (≈ 1.11 µM) |
| CC[C@H]1OC(=O)C[C@@H](O)[C@H](C)[C@@H](O[C@@H]2O[C@H](C)[C@@H](O)[C@H](N(C)C)[C@H]2O)[C@@H](CCN(Cc2cn(-c3cnc4ccccc4c3)nn2)c2ccccc2)C[C@@H](C)C(=O)/C=C/C(C)=C/[C@@H]1CNCc1ccccc1 | 8 (≈ 8.23 µM) | 4 (≈ 4.11 µM) |
| CC[C@H]1OC(=O)C[C@@H](O)[C@H](C)[C@@H](O[C@@H]2O[C@H](C)[C@@H](O)[C@H](N(C)C)[C@H]2O)[C@@H](CCNCc2cn(-c3cnc4ccccc4c3)nn2)C[C@@H](C)C(=O)/C=C/C(C)=C/[C@@H]1CN1CCCCC1 | 2 (≈ 2.29 µM) | 0.5 (≈ 0.572 µM) |
| CC[C@H]1OC(=O)C[C@@H](O)[C@H](C)[C@@H](O[C@@H]2O[C@H](C)[C@@H](O)[C@H](N(C)C)[C@H]2O)[C@@H](CCN(C)Cc2cn(-c3cnc4ccccc4c3)nn2)C[C@@H](C)C(=O)/C=C/C(C)=C/[C@@H]1CO | 4 (≈ 4.87 µM) | 1 (≈ 1.22 µM) |
